Reference: the supplement of paper PMC4858399
Where a name gives a salt, the structure may show the parent alone.

What was measured:
[1] = tested on: Caenorhabditis elegans N2; assay: mean nematode size ln(EXT) after 48 h, plate-adjusted (DMSO control set to 6) (ln(EXT), control-adjusted); higher = larger nematodes / less growth inhibition; conditions: exposure time 48 h
Outline: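 Worms were measured individually for extinction on the Biosort after 48 h at 20°C. They began as synchronised C. elegans N2 L1 larvae in K-medium with killed OP50, 1% DMSO and 0.5–200 µM chemical. Once debris had been removed by a growth model, values were natural-logged and averaged per well to give mean size. The plate adjustment subtracted the vehicle control mean and added 6.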

[2] = tested on: Caenorhabditis elegans N2; assay: lowest effective concentration for larval growth inhibition (size below effect threshold); higher = less potent; conditions: exposure time 48 h
Outline: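 Each well of a 96-well plate received 50 C. elegans N2 L1 larvae, which grew for 48 h at 20°C in K-medium containing killed bacteria, 1% DMSO and the chemical at 0.5, 1, 5, 10, 50, 100 or 200 µM. A Biosort recorded the extinction of every worm as its size, and these readings were log-transformed and averaged per well. The lowest effective concentration is defined as the first dose at which the plate-adjusted mean size falls below the threshold and stays below it at all higher doses; that threshold is 5.665.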

Compound | mean nematode size ln(EXT) (ln) ([1]; 0.5 µM) | mean nematode size ln(EXT) (ln) ([1]; 1 µM) | mean nematode size ln(EXT) (ln) ([1]; 5 µM) | mean nematode size ln(EXT) (ln) ([1]; 10 µM) | mean nematode size ln(EXT) (ln) ([1]; 50 µM) | mean nematode size ln(EXT) (ln) ([1]; 100 µM) | mean nematode size ln(EXT) (ln) ([1]; 200 µM) | lowest effective concentration [2] [µM]
CCCC(=O)OCC [Ethyl butyrate] | 5.9 | 5.93 | 5.96 | 6.03 | 5.94 | 5.91 | 5.82 | > 200
CCCCCCOCCO [Ethylene glycol monohexyl ether] | 5.81 | 6.03 | 5.9 | 5.93 | 5.72 | 5.89 | 5.77 | > 200
S=C1NCCN1 [Ethylenethiourea] | 6.18 | 5.97 | 6.08 | 6.19 | 6.12 | 6.12 | 5.69 | > 200
CCOC(=O)c1ccc(O)cc1 [Ethylparaben] | 5.98 | 5.82 | 5.93 | 5.81 | 5.84 | 5.84 | 5.74 | > 200
C=CCc1ccc(O)c(OC)c1 [Eugenol] | 5.89 | 5.9 | 5.93 | 5.98 | 5.91 | 5.87 | 5.77 | > 200
CCN(Cc1cccc(S(=O)(=O)O)c1)c1ccc(C(=C2C=CC(=[N+](CC)Cc3cccc(S(=O)(=O)O)c3)C=C2)c2ccccc2S(=O)(=O)[O-])cc1 [FD & C Blue no. 1] | 5.85 | 5.87 | 5.91 | 5.88 | 5.89 | 5.92 | 5.89 | > 200
O=S(=O)(O)c1ccc(N=Nc2c(O)ccc3cc(S(=O)(=O)O)ccc23)cc1 [FD&C Yellow no. 6] | 5.95 | 5.86 | 5.74 | 5.85 | 5.89 | 5.91 | 5.84 | > 200
CCc1cc(C2=C(C(=O)O)N(c3ccccc3C(F)(F)F)S(=O)(=O)c3ccccc32)cc2c1OCO2 [Fandosentan potassium salt] | 5.81 | 5.82 | 5.89 | 5.85 | 5.75 | 5.75 | 5.69 | > 200
Cc1ccn2nc(S(=O)(=O)Nc3c(F)cccc3F)nc2n1 [Flumetsulam] | 5.91 | 5.95 | 6.03 | 6.05 | 5.93 | 6.02 | 5.88 | > 200
C#CCN1C(=O)COc2cc(F)c(N3C(=O)C4=C(CCCC4)C3=O)cc21 [Flumioxazin] | 5.98 | 5.91 | 5.92 | 5.99 | 5.98 | 5.87 | 6 | > 200
CN(C)C(=O)Nc1cccc(C(F)(F)F)c1 [Fluometuron] | 6.02 | 6.11 | 6.08 | 6.02 | 5.87 | 6.07 | 5.78 | > 200
COC(=O)CSc1cc(/N=c2\sc(=O)n3n2CCCC3)c(F)cc1Cl [Fluthiacet-methyl] | 5.92 | 5.93 | 5.96 | 5.96 | 5.98 | 5.95 | 5.92 | > 200
Nc1nc(=O)c2nc(CNc3ccc(C(=O)N[C@@H](CCC(=O)O)C(=O)O)cc3)cnc2[nH]1 [Folic acid] | 6.04 | 5.96 | 5.91 | 6.04 | 6.02 | 6 | 5.82 | > 200
O=Cc1ccco1 [Furfural] | 5.92 | 5.88 | 5.88 | 5.91 | 5.95 | 5.83 | 5.82 | > 200
CC(C)=CCC/C(C)=C/CO [Geraniol] | 5.92 | 5.94 | 5.89 | 6.03 | 5.99 | 6.04 | 5.72 | > 200
OCC1CO1 (stereo unspecified) [Glycidol] | 5.87 | 5.79 | 5.81 | 5.79 | 5.78 | 5.49 | 5.83 | > 200
CCCCCCC(=O)OCC [Heptanoic acid, ethyl ester] | 5.88 | 5.93 | 5.82 | 6.08 | 5.85 | 5.89 | 6.02 | > 200
CCCCCCCCCCCCCCCC [Hexadecane] | 5.93 | 5.9 | 5.89 | 5.89 | 5.86 | 5.83 | 5.72 | > 200
C1N2CN3CN1CN(C2)C3 [Hexamethylenetetramine] | 5.69 | 5.77 | 5.6 | 5.54 | 5.51 | 5.41 | 5.6 | 5
N#CCCCCC#N [Hexanedinitrile] | 5.89 | 5.82 | 5.87 | 5.81 | 5.96 | 5.75 | 5.8 | > 200
CCCCCC(=O)O [Hexanoic acid] | 5.99 | 5.88 | 5.83 | 5.84 | 5.83 | 5.87 | 5.79 | > 200
NS(=O)(=O)c1cc2c(cc1Cl)NCNS2(=O)=O [Hydrochlorothiazide] | 5.86 | 5.85 | 5.85 | 5.83 | 5.76 | 5.46 | 5.83 | > 200
Oc1ccc(O)cc1 [Hydroquinone] | 5.99 | 6.02 | 6.04 | 6.02 | 6.1 | 6.09 | 5.72 | > 200
NC(=O)NO [Hydroxyurea] | 6 | 5.97 | 5.92 | 5.93 | 5.75 | 5.63 | 5.73 | > 200
CCC(C)OC(=O)N1CCCCC1CCO (stereo unspecified) [Icaridin] | 5.45 | 5.77 | 5.76 | 6.03 | 5.43 | 5.79 | 5.97 | > 200
COCc1cnc(C2=NC(C)(C(C)C)C(=O)N2)c(C(=O)O)c1 (stereo unspecified) [Imazamox] | 5.93 | 5.93 | 5.91 | 5.96 | 6 | 6.01 | 5.83 | > 200
CC(C)C1(C)N=C(c2ncccc2C(=O)O)NC1=O (stereo unspecified) [Imazapyr] | 5.84 | 5.98 | 6.01 | 5.97 | 5.9 | 5.84 | 5.77 | > 200
